PubChem BioAssay (NCI)
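96-well plates; 48 h exposure; 5 concentrations. Endpoints by linear interpolation between flanking doses. Not reached: highest tested concentration assigned. Definition used: TGI = concentration required for complete inhibition of growth.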 Where a SMILES comes first, the peptide text is derived from it. The star is where a group is joined. Cbz = O=C(OCc1ccccc1)*

Columns and labels:
Assay in all cases: NCI-60 cell line screen, 48 h
[1] = test system: COLO 205 colon
[2] = test system: DU-145 prostate
[3] = test system: EKVX NSCLC
[4] = test system: HCC-2998 colon
[5] = test system: HCT-15 colon
[6] = test system: HOP-92 NSCLC
[7] = test system: M14 melanoma
[8] = test system: MDA-MB-435
[9] = test system: SF-268 CNS
[10] = test system: SF-295 CNS
[11] = test system: SK-MEL-28 melanoma
[12] = test system: SK-MEL-5 melanoma
[13] = test system: SNB-75 CNS
[14] = test system: SK-MEL-2 melanoma
[15] = test system: CCRF-CEM leukemia

Compound	TGI [1]	TGI [2]	TGI [3]	TGI [4]	TGI [5]	TGI [6]	TGI [7]	TGI [8]	TGI [9]	TGI [10]	TGI [11]	TGI [12]	TGI [13]	TGI [14]	TGI [15]
CCOC(=O)C(C)NC(=O)C(C)NC(=O)C(C)NC(=O)C(C)NC(=O)C(C)NC(=O)C(C)NC(=O)C(C)NC(=O)OCc1ccccc1 (configuration not stated) (Cbz-AAAAAAA-OEt; configuration not given here)	> 100 µM	> 100 µM	> 100 µM	> 100 µM	> 100 µM	> 100 µM	> 100 µM	> 100 µM	> 100 µM	> 100 µM	> 100 µM	> 100 µM	> 100 µM		
C[C@@H]1C(O)CC[C@H](C)C12CC=CC2=O (some centres not stated)	> 100 µM	> 100 µM	> 100 µM	> 100 µM	> 100 µM	> 100 µM		> 100 µM	> 100 µM	> 100 µM	> 100 µM	> 100 µM		> 100 µM	
O=C1OC(CN2CCN(c3ccccc3)CC2)CN1C(=S)Nc1ccccc1 (configuration not stated)	> 100 µM	> 100 µM	> 100 µM	> 100 µM	> 100 µM	> 100 µM	> 100 µM	> 100 µM	> 100 µM	> 100 µM	> 100 µM	> 100 µM	> 100 µM	> 100 µM	> 100 µM
Cc1ccc(S(=O)(=O)N/N=C2\C=C[C@]3(CC2)C(=O)N(C)c2ccccc23)cc1	> 100 µM	> 100 µM	> 100 µM	> 100 µM	> 100 µM	> 100 µM	> 100 µM	> 100 µM	> 100 µM	> 100 µM	> 100 µM	> 100 µM	> 100 µM	> 100 µM	> 100 µM
CCOC(=O)c1nc2cc(C(F)(F)F)ccc2nc1Nc1ccc(Cl)c(Cl)c1	> 100 µM	> 100 µM	> 100 µM	> 100 µM	> 100 µM	94.1 µM	> 100 µM	> 100 µM	> 100 µM	> 100 µM	> 100 µM	> 100 µM	> 100 µM	> 100 µM	> 100 µM
S=C(Nc1ccc(Br)cn1)NC12CC3CC(CC(C3)C1)C2	> 100 µM	> 100 µM	65 µM	83.3 µM	> 100 µM	26.4 µM	> 100 µM	> 100 µM	34.5 µM	49.5 µM	> 100 µM		40.8 µM	51.7 µM	70.3 µM
CC(C)(C)C=C=C(C(C)(C)C)P(=O)(O)O	> 100 µM	> 100 µM	> 100 µM	> 100 µM	> 100 µM	> 100 µM	> 100 µM	> 100 µM	> 100 µM	> 100 µM	> 100 µM	> 100 µM	> 100 µM	> 100 µM	
CCC1(C)N=C(C(N)=O)c2ncn(N=C(C)C)c2N1 (configuration not stated)	> 100 µM	> 100 µM	> 100 µM	> 100 µM	> 100 µM	> 100 µM	> 100 µM	> 100 µM	> 100 µM	> 100 µM	> 100 µM	> 100 µM	> 100 µM		> 100 µM
